According to patent US11471512B2, “Pharmaceutical compositions of a peptide” (Merck Sharp & Dohme Corp., priority 2019, dated 2022):
Starred links: 1 amine or outer side, 2 acyl side, 3 side chain; linkers in the order of their positions; H or OH if unused. Non-standard residues stand in square brackets, D forms with d. Residues, ends and D or L forms follow the SMILES beside them. Groups on a side chain read outwards from the residue. *: point of attachment. γGlu = O=C(O)[C@H](CCC(=O)[*:2])N[*:1]; Palmitoyl = CCCCCCCCCCCCCCCC(=O)*; Aib = CC(C)(N)C(=O)O

Legend:
[1] = Water solubility of the peptide as a function of pH; type: physicochemical; conditions: between pH 4 and pH 6
[2] = Chemical stability of the peptide in aqueous formulation as a function of pH; type: physicochemical; conditions: above pH 7.6

water solubility [1]: poor water solubility | chemical stability [2]: poor chemical stability
SMILES: CCCCCCCCCCCCCCCC(=O)N[C@@H](CCC(=O)N[C@@H](CCC(=O)NCCCC[C@H](NC(=O)[C@H](CC(=O)O)NC(=O)[C@H](CO)NC(=O)[C@@H](NC(=O)[C@H](Cc1ccccc1)NC(=O)[C@@H](NC(=O)CNC(=O)[C@H](CCC(N)=O)NC(=O)C(C)(C)NC(=O)[C@@H](N)Cc1c[nH]cn1)[C@@H](C)O)[C@@H](C)O)C(=O)N[C@@H](CO)C(=O)N[C@@H](CCCCN)C(=O)N[C@@H](Cc1ccc(O)cc1)C(=O)N[C@@H](CC(C)C)C(=O)N[C@@H](CC(=O)O)C(=O)NC(C)(C)C(=O)N[C@@H](CCCNC(=N)N)C(=O)N[C@@H](C)C(=O)N[C@@H](C)C(=O)N[C@@H](CCC(N)=O)C(=O)N[C@@H](CC(=O)O)C(=O)N[C@@H](Cc1ccccc1)C(=O)N[C@H](C(=O)N[C@@H](CCC(N)=O)C(=O)N[C@@H](Cc1c[nH]c2ccccc12)C(=O)N[C@@H](CC(C)C)C(=O)N[C@@H](CCSC)C(=O)N[C@@H](CC(N)=O)C(=O)N[C@H](C(=O)N[C@@H](CCCCN)C(=O)N[C@@H](CCC(N)=O)C(=O)O)[C@@H](C)O)C(C)C)C(=O)O)C(=O)O [peptide of SEQ ID NO. 1, HUQGTFTSD K(γGlu-γGlu-C16) SKYLD aibRAAQDFVQWLMNTKγGlu-amide] (H-H[Aib]QGTFTSDK([γGlu-γGlu-Palmitoyl])SKYLD[Aib]RAAQDFVQWLMNTKQ-OH; N-terminus and C-terminus assumed)
